This passage reports Side effect, LD50 and mental conditions results from US4552865A, “Psychotropic drugs” (Shionogi & Co., Ltd., priority 1981, dated 1985).

In data set [1] the test system is patients of schizophrenia.
Procedure: (1) Method of application: Caerulein tris-diethylamine salt is dissolved in sterilized physiological saline at a rate of 20 μg/ml (W/V), and intramuscularly injected to each patient once at a dose of 0.3 μg/kg (body weight) or 0.6 μg/kg (body weight).
The subject of another data set is rats. The settings on record: intravenous, cited from earlier work.
In the next data set the test system is mice. The settings on record: intravenous, cited from earlier work.

Counter-ions that a name gives are not always drawn. Like-named read-outs stand apart in the source and are kept apart here. Where a SMILES comes first, the peptide text is derived from it. [ ]: non-standard residue; d: D form. sY = N[C@@H](Cc1ccc(OS(=O)(=O)O)cc1)C(=O)O; pGlu = O=C1CC[C@@H](C(=O)O)N1

As for `CSCC[C@H](NC(=O)[C@H](Cc1c[nH]c2ccccc12)NC(=O)CNC(=O)[C@@H](NC(=O)[C@H](Cc1ccc(OS(=O)(=O)O)cc1)NC(=O)[C@H](CC(=O)O)NC(=O)[C@H](CCC(N)=O)NC(=O)[C@@H]1CCC(=O)N1)[C@@H](C)O)C(=O)N[C@@H](CC(=O)O)C(=O)N[C@@H](Cc1ccccc1)C(N)=O` [Caerulein tris-diethylamine salt] ([pGlu]QD[sY]TGWMDF-NH2), the Side effect result in data set [1] (individual schizophrenia patient, after i.m. injection) is on record as “No”.

Take `CSCC[C@H](NC(=O)[C@H](Cc1c[nH]c2ccccc12)NC(=O)CNC(=O)[C@@H](NC(=O)[C@H](Cc1ccc(OS(=O)(=O)O)cc1)NC(=O)[C@H](CC(=O)O)NC(=O)[C@H](CCC(N)=O)NC(=O)[C@@H]1CCC(=O)N1)[C@@H](C)O)C(=O)N[C@@H](CC(=O)O)C(=O)N[C@@H](Cc1ccccc1)C(N)=O` [caerulein, 5-oxo-L-prolyl-L-glutaminyl-L-aspartyl-O-sulfo-L-tryosyl-L-threonylglycyl-L-tryptophyl-L-methionyl-L-aspartyl-L-phenylalaninamide] ([pGlu]QD[sY]TGWMDF-NH2): the 50% lethal dose (LD50) with rats (female) is listed as 571 mg/kg; in the data set on rats (male), 714 mg/kg; with mice (female) it was 702 mg/kg; in the data set with mice (male), 647 mg/kg. Besides, the mental conditions result in data set [1] (administered to humans) was “improves rapidly and markedly the mental conditions”.
